PMC3459870, “Hit-to-Lead Development of the Chamigrane Endoperoxide Merulin A for the Treatment of African Sleeping Sickness” (PLoS ONE, 2012)
Read-outs that look alike come from different tables or passages of the source.

What was measured:
[1] = system: Trypanosoma brucei brucei strain 427–221; test: Trypanosome screening assay (CellTiter-Glo ATP bioluminescence, 48 h); format: cell-based; settings: for IC50: Trypanosoma brucei
Procedure: Trypanosoma brucei brucei strain 427–221 were grown at 37°C, 5% CO2 in HMI-9 medium containing 10% Fetal Bovine Serum, 10% Serum Plus (JRH Inc., Lenexa, KS,USA) and penicillin/streptomycin.
T.b.b. 427–221 were diluted to 2.10^4 per ml in complete HMI-9 medium and aliquoted in Greiner sterile 384-well flat white opaque culture plates using a WellMate cell dispenser from Matrix Tech. (Hudson, NH, USA). Test compounds were serially diluted in dimethyl sulfoxide (DMSO) and added to the assay plates with the robotic dispenser Biomek FXp liquid handler (Beckman Coulter). Thimerosal (2 µM final concentration) was added as a positive control and DMSO as a negative control (1% final concentration). Trypanosomes were incubated with compounds for 48 hours at 37°C with 5% CO2 before monitoring cell viability as previously described. Briefly, trypanosomes were lysed in the wells by adding 25 µL of CellTiter-GloTM (Promega). The lysed trypanosomes were placed on an orbital shaker at room temperature for 2 minutes. After lysis, the resulting ATP-bioluminescence was measured at room temperature using an Analyst HT plate reader (Molecular Devices). Percentage inhibition of parasite growth was calculated for each well as [1−(RLUx−RLU+)/(RLU−−RLU+)]*100 where RLUx, RLU+ and RLU− are respectively the Relative Light Units for each well, positive (thimerosal) and negative (DMSO) controls. A screening window coefficient, denoted Z′ factor, was used to evaluate the performance of the assay. The Z′ factor, calculated as 1−(3σc++3σc−)/(μc+−μc−) where σc+, σc−, μc+ and μc− are respectively the standard deviation and mean values of positive and negative controls, is reflective of the assay signal dynamic range and the data variation associated with signal measurement. IC50's were calculated using Prism (GraphPad).

T98-G cells = test: Glioblastoma toxicity screening assay (nuclei count by imaging, 17 h); format: cell-based; settings: Homo sapiens, T98G; Figure 4
Procedure: (§1) T98-G cells (ATTC number: CRL-1690) were plated at a density of 2,000 cells per well into two 384 well clear bottom plates (Costar 3712) in DMEM with 10% FBS. After 24 hours incubation at 37°C with 5% CO2 the cells were pinned with 200 nL of a two-fold serial dilution of merulin analogues. After 17 hours of treatment at 37°C in 5% CO2 the plates were fixed with 4% formaldehyde and washed with PBS (BioTek ELx405). After 10 minutes in PBS with 0.5% TritonX-100 each plate was washed and blocked with 2% Bovine Serum Albumin in PBS. Nuclei were stained with Hoechst 33342 then washed and placed in 40 µL of PBS with 0.1% sodium azide. Plates were imaged using the ImageXpress Micro epifluorescent scope (Molecular Devices). MetaXpress software was used to quantify total number of cells and IC50s were calculated using Prism (GraphPad).

HeLa cells = test: HeLa toxicity screening assay (nuclei count by imaging, 17 h); format: cell-based, human; settings: Homo sapiens, HeLa; Figure 4
Procedure: as §1, with “HeLa” for “T98-G”, “cells” for “cells (ATTC number: CRL-1690)”

[2] = text and Figures 1, 3, bloodstream form, read-out: IC50 against T. brucei brucei
[3] = Figure 4, bloodstream form, read-out: T.b.b IC50

Structure (SMILES) | IC50 (T98-G cells) | IC50 (HeLa cells) | IC50 [1, 3] | other results
NCCCC(N)(C(=O)O)C(F)F (stereo not shown) [Eflornithine, reference compound] |  |  |  | IC50 ([1]; Table 3, read-out: T.b.b IC50): 59 µM
CC1(C)CCC(=O)C2(C)OOC3CC12CCC3(O)CO (stereo not shown) [Merulin B (6), Merulin B] |  |  |  | IC50 ([1]; Table 3, read-out: T.b.b IC50): 8 µM
CC1(C)C=CC(=O)[C@@]2(C)OO[C@@H]3C[C@]12CCC3(O)CO (stereo partly shown) [Merulin C (7), Merulin C] |  |  |  | IC50 ([1]; Table 3, read-out: T.b.b IC50): 0.8 µM
N=C(N)c1ccc(OCCCCCOc2ccc(C(=N)N)cc2)cc1 [Pentamidine, reference compound] |  |  |  | IC50 ([1]; Table 3, read-out: T.b.b IC50): 0.03 µM
Cc1ccc(C(=O)Nc2ccc(S(=O)(=O)O)c3cc(S(=O)(=O)O)cc(S(=O)(=O)O)c23)cc1NC(=O)c1cccc(NC(=O)Nc2cccc(C(=O)Nc3cc(C(=O)Nc4ccc(S(=O)(=O)O)c5cc(S(=O)(=O)O)cc(S(=O)(=O)O)c45)ccc3C)c2)c1 [Suramin, reference compound] |  |  |  | IC50 ([1]; Table 3, read-out: T.b.b IC50): 0.007 µM
CC1(C)CC[C@@H](O)[C@@]2(C)OO[C@H]3C[C@@]12CC[C@H]3O [compound 8, (3S,4R,6aS,10R,10aS)-7,7,10a-trimethyloctahydro-3H-3,6a-methanobenzo[c][1,2]dioxocine-4,10-diol] |  |  |  | IC50 [1, 2]: > 50 µM
CC1(C)CCC(=O)[C@@](C)(O)[C@]12CC[C@@H](O)[C@@H](O)C2 [compound 9, (1S,6S,8S,9R)-1,8,9-trihydroxy-1,5,5-trimethylspiro[5.5]undecan-2-one] |  |  |  | IC50 [1, 2]: > 50 µM; activity against T. brucei brucei in words ([1]; initial SAR series): complete loss of activity
CC(=O)O[C@@H]1CC[C@@]23C[C@@H]1OO[C@]2(C)C(=O)CCC3(C)C [compound 10, (3S,4R,6aS,10aS)-7,7,10a-trimethyl-10-oxooctahydro-3H-3,6a-methanobenzo[c][1,2]dioxocin-4-yl acetate] |  |  |  | IC50 [1, 2]: 14 µM
CC(C)(C)C(=O)O[C@@H]1CC[C@@]23C[C@@H]1OO[C@]2(C)C(=O)CCC3(C)C [compound 11, (3S,4R,6aS,10aS)-7,7,10a-trimethyl-10-oxooctahydro-3H-3,6a-methanobenzo[c][1,2]dioxocin-4-yl pivalate] |  |  |  | IC50 [1, 2]: 8 µM
CC1(C)CCC(=O)[C@@]2(C)OO[C@H]3C[C@@]12CC[C@H]3OC(=O)C1COc2ccccc2O1 (stereo partly drawn) [compound 12, (3S,4R,6aS,10aS)-7,7,10a-trimethyl-10-oxooctahydro-3H-3,6a-methanobenzo[c][1,2]dioxocin-4-yl 2,3-dihydrobenzo[b][1,4]dioxine-2-carboxylate] | > 50 µM | > 50 µM |  | IC50 ([1]; Table 3, read-out: T.b.b IC50): 0.06 µM
CC1(C)CCC(=O)[C@@]2(C)OO[C@H]3C[C@@]12CC[C@H]3OC(=O)c1ccc2c(c1)OCCO2 [compound 13, (3S,4R,6aS,10aS)-7,7,10a-trimethyl-10-oxooctahydro-3H-3,6a-methanobenzo[c][1,2]dioxocin-4-yl 2,3-dihydrobenzo[b][1,4]dioxine-6-carboxylate] | > 50 µM | 28 µM | 0.26 µM | 
CC1(C)CCC(=O)[C@@]2(C)OO[C@H]3C[C@@]12CC[C@H]3OC(=O)c1cc2ccccc2oc1=O [compound 14, (3S,4R,6aS,10aS)-7,7,10a-trimethyl-10-oxooctahydro-3H-3,6a-methanobenzo[c][1,2]dioxocin-4-yl 2-oxo-2H-chromene-3-carboxylate] | > 50 µM | > 50 µM | 0.42 µM | 
CC1(C)CCC(=O)[C@@]2(C)OO[C@H]3C[C@@]12CC[C@H]3OC(=O)c1cccc(-c2ccccc2)c1 [compound 15, (3S,4R,6aS,10aS)-7,7,10a-trimethyl-10-oxooctahydro-3H-3,6a-methanobenzo[c][1,2]dioxocin-4-yl [1,1′-biphenyl]-3-carboxylate] | > 50 µM | > 50 µM | 0.24 µM | 
CC1(C)CCC(=O)[C@@]2(C)OO[C@H]3C[C@@]12CC[C@H]3OC(=O)c1ccc(C2CCCCC2)cc1 [compound 16, (3S,4R,6aS,10aS)-7,7,10a-trimethyl-10-oxooctahydro-3H-3,6a-methanobenzo[c][1,2]dioxocin-4-yl 4-cyclohexylbenzoate] | > 50 µM | 13 µM | 0.11 µM | 
CC1(C)CCC(=O)[C@@]2(C)OO[C@H]3C[C@@]12CC[C@H]3OC(=O)Cc1cccc2ccccc12 [compound 17, (3S,4R,6aS,10aS)-7,7,10a-trimethyl-10-oxooctahydro-3H-3,6a-methanobenzo[c][1,2]dioxocin-4-yl 2-(naphthalen-1-yl)acetate] | > 50 µM | 13 µM |  | IC50 ([1]; bloodstream form, read-out: IC50 against T. brucei): 0.043 µM
Cc1ncc(C(=O)O[C@@H]2CC[C@@]34C[C@@H]2OO[C@]3(C)C(=O)CCC4(C)C)s1 [compound 18, (3S,4R,6aS,10aS)-7,7,10a-trimethyl-10-oxooctahydro-3H-3,6a-methanobenzo[c][1,2]dioxocin-4-yl 2-methylthiazole-5-carboxylate] | > 50 µM | > 50 µM | 0.7 µM | 
CC1(C)CCC(=O)[C@@]2(C)OO[C@H]3C[C@@]12CC[C@H]3OC(=O)c1cnc(Br)s1 [compound 19, (3S,4R,6aS,10aS)-7,7,10a-trimethyl-10-oxooctahydro-3H-3,6a-methanobenzo[c][1,2]dioxocin-4-yl 2-bromothiazole-5-carboxylate] | > 50 µM | 13 µM | 0.66 µM | 
CC1(C)CCC(=O)[C@@]2(C)OO[C@H]3C[C@@]12CC[C@H]3OC(=O)c1ccsc1 [compound 20, (3S,4R,6aS,10aS)-7,7,10a-trimethyl-10-oxooctahydro-3H-3,6a-methanobenzo[c][1,2]dioxocin-4-yl thiophene-3-carboxylate] | > 50 µM | 16 µM | 0.33 µM | 
CC1(C)CCC(=O)[C@@]2(C)OO[C@H]3C[C@@]12CC[C@H]3OC(=O)c1cc(Cl)sc1Cl [compound 21, (3S,4R,6aS,10aS)-7,7,10a-trimethyl-10-oxooctahydro-3H-3,6a-methanobenzo[c][1,2]dioxocin-4-yl 2,5-dichlorothiophene-3-carboxylate] | > 50 µM | 21 µM | 0.54 µM | 
CC1(C)CCC(=O)[C@@]2(C)OO[C@H]3C[C@@]12CC[C@H]3OC(=O)c1cc(-c2ccccc2)no1 [compound 22, (3S,4R,6aS,10aS)-7,7,10a-trimethyl-10-oxooctahydro-3H-3,6a-methanobenzo[c][1,2]dioxocin-4-yl 3-phenylisoxazole-5-carboxylate] | 20 µM | > 50 µM | 0.19 µM | 
CC1(C)CCC(=O)[C@@]2(C)OO[C@H]3C[C@@]12CC[C@H]3OC(=O)c1ccno1 [compound 23, (3S,4R,6aS,10aS)-7,7,10a-trimethyl-10-oxooctahydro-3H-3,6a-methanobenzo[c][1,2]dioxocin-4-yl isoxazole-5-carboxylate] | > 50 µM | > 50 µM | 1.8 µM | 
CC1(C)CCC(=O)[C@@]2(C)OO[C@H]3C[C@@]12CC[C@H]3OC(=O)c1ccc(N2CCOCC2)cc1 [compound 24, (3S,4R,6aS,10aS)-7,7,10a-trimethyl-10-oxooctahydro-3H-3,6a-methanobenzo[c][1,2]dioxocin-4-yl 4-morpholinobenzoate] | > 50 µM | 12 µM | 0.27 µM | 
CC1(C)CCC(=O)[C@@]2(C)OO[C@H]3C[C@@]12CC[C@H]3OC(=O)c1ccncc1 [compound 25, (3S,4R,6aS,10aS)-7,7,10a-trimethyl-10-oxooctahydro-3H-3,6a-methanobenzo[c][1,2]dioxocin-4-yl isonicotinate] | > 50 µM | > 50 µM | 0.95 µM | 
